Experimental data as given in ChEMBL document CHEMBL3593211, “Digging Deep for New Compounds from the Compass Plant, Silphium laciniatum” (J Nat Prod, 2015).

Test system: NCI-H460
Test: Cytotoxicity against human NCI-H460 cells incubated for 72 hrs by cell-titer 96 aqueous non-radioactive cell proliferation assay
Format: functional, cell-based
Conditions: NCI-H460, 72 h

| Structure (SMILES) | IC50 |
| --- | --- |
| CC1(C)CCC[C@]2(C)[C@H]3C[C@@H](C(O)(CO)C(O)CO)O[C@]3(C)CC[C@@H]12 (some centres undefined) | > 10 µM |
| CC1(C)CC[C@]2(C(=O)O)CC[C@]3(C)C(=CC[C@@H]4[C@@]5(C)CC[C@H](O[C@@H]6O[C@H](C(=O)O)[C@@H](O)[C@H](O)[C@H]6OC6O[C@H](CO)[C@@H](O)[C@H](O)[C@H]6O)C(C)(C)[C@@H]5CC[C@]43C)[C@@H]2C1 (some centres undefined) | 7 µM |
| CC1(C)CC[C@]2(C(=O)O)CC[C@]3(C)C(=CC[C@@H]4[C@@]5(C)CC[C@H](O[C@@H]6O[C@H](C(=O)O)[C@@H](O)[C@H](O)[C@H]6O)C(C)(C)[C@@H]5CC[C@]43C)[C@@H]2C1 | 6 µM |
| CC(=O)OCC(O)(C(O)CO)[C@@H]1C[C@@H]2[C@@]3(C)CCCC(C)(C)[C@@H]3CC[C@@]2(C)O1 (some centres undefined) | > 10 µM |
| C/C(=C\CC/C=C(\C)CC/C=C(\C)CCC(O)C(C)(C)O)C/C=C/[C@@]1(C)CC[C@@H](C(C)(C)O)O1 (some centres undefined) | 9 µM |
| CC(=O)OC[C@@]1([C@@H]2C[C@@H]3[C@@]4(C)CCCC(C)(C)[C@@H]4CC[C@@]3(C)O2)O[C@@H]1CO | > 10 µM |
| CC(=O)OCC(O)C(O)(CO)[C@@H]1C[C@@H]2[C@@]3(C)CCCC(C)(C)[C@@H]3CC[C@@]2(C)O1 (some centres undefined) | > 10 µM |
| CC(=O)OC[C@]1([C@@H]2C[C@@H]3[C@@]4(C)CCCC(C)(C)[C@@H]4CC[C@@]3(C)O2)O[C@H]1CO | > 10 µM |
| CC1(C)CCC[C@]2(C)[C@H]3C[C@@H](/C(=C\CO)CO)O[C@]3(C)CC[C@@H]12 | > 10 µM |
| CC1(C)CCC[C@]2(C)[C@H]3C[C@@H]([C@@]4(CO)O[C@H]4CO)O[C@]3(C)CC[C@@H]12 | > 10 µM |
| C/C(=C\CCC/C(C)=C/C(=O)C[C@@]1(C)CC[C@@H](C(C)(C)O)O1)CC/C=C(\C)CCC(O)C(C)(C)O (some centres undefined) | 6 µM |
| CC(=O)OC/C(=C/CO)[C@@H]1C[C@@H]2[C@@]3(C)CCCC(C)(C)[C@@H]3CC[C@@]2(C)O1 | > 10 µM |
| C/C(=C\CC/C=C(\C)CC/C=C(\C)CC[C@@H](O)C(C)(C)O)CC/C=C(\C)CC[C@@H](O)C(C)(C)O | 7 µM |
| CC1(C)CCC[C@]2(C)[C@H]3C[C@@H]([C@]4(CO)O[C@@H]4CO)O[C@]3(C)CC[C@@H]12 | > 10 µM |
